Laboratory results as given in patent US9655363B2, “Microbiocides” (Syngenta Participations AG, priority 2013, dated 2017).

What was measured:
[1] = system: Blumeria Graminis f. sp. Tritici (Erysiphe Graminis f. sp. Tritici); experiment: Blumeria graminis f. sp. tritici / wheat / leaf disc preventative (powdery mildew on wheat); assay type: in vivo; conditions: foliar, wheat leaf disc cv. Kanzler, compared to untreated, 6-8 days after application, read-out: disease control
Method: Fungicidal Activity Against Blumeria Graminis f. sp. Tritici (Erysiphe Graminis f. sp. Tritici)/Wheat/Leaf Disc Preventative (Powdery Mildew on Wheat) Wheat leaf segments cv. Kanzler were placed on agar in a multiwell plate (24-well format) and sprayed with the formulated test compound diluted in water. The leaf disks were inoculated by shaking powdery mildew infected plants above the test plates 1 day after application. The inoculated leaf disks were incubated at 20° C. and 60% rh under a light regime of 24 h darkness followed by 12 h light/12 h darkness in a climate chamber and the activity of a compound was assessed as percent disease control compared to untreated when an appropriate level of disease damage appears on untreated check leaf segments (6-8 days after application).

[2] = system: Puccinia Recondita f. sp. Tritici; experiment: Puccinia recondita f. sp. tritici / wheat / leaf disc curative (brown rust); assay type: in vivo; conditions: foliar, 192 h, compared to untreated, 8 days after inoculation, read-out: disease control
Method: Fungicidal Activity Against Puccinia Recondita f. sp. Tritici/Wheat/Leaf Disc Curative (Brown Rust) Wheat leaf segments are placed on agar in multiwell plates (24-well format). The leaf disks are then inoculated with a spore suspension of the fungus. One day after inoculation the test solution is applied. After appropriate incubation the activity of a compound is assessed 8 dpi (days after inoculation) as curative fungicidal activity. Dose range: 200-22 ppm.

[3] = system: Puccinia Recondita f. sp. Tritici; experiment: Puccinia recondita f. sp. tritici / wheat / leaf disc preventative (brown rust); assay type: in vivo; conditions: foliar, wheat leaf disc cv. Kanzler, compared to untreated, 7-9 days after application, read-out: disease control
Method: Fungicidal Activity Against Puccinia Recondita f. sp. Tritici/Wheat/Leaf Disc Preventative (Brown Rust) Wheat leaf segments cv. Kanzler were placed on agar in multiwell plates (24-well format) and sprayed with the formulated test compound diluted in water. The leaf disks were inoculated with a spore suspension of the fungus 1 day after application. The inoculated leaf segments were incubated at 19° C. and 75% rh under a light regime of 12 h light/12 h darkness in a climate cabinet and the activity of a compound was assessed as percent disease control compared to untreated when an appropriate level of disease damage appears in untreated check leaf segments (7-9 days after application).

[4] = system: Mycosphaerella Arachidis (Cercospora Arachidicola); experiment: Mycosphaerella arachidis (Cercospora arachidicola) / liquid culture (early leaf spot); assay type: cell-based; conditions: liquid culture (PDB), growth inhibition photometrically 4-5 days after application, read-out: disease control
Method: (§1) Fungicidal Activity Against Mycosphaerella Arachidis (Cercospora Arachidicola)/Liquid Culture (Early Leaf Spot) Conidia of the fungus from cryogenic storage were directly mixed into nutrient broth (PDB potato dextrose broth). After placing a (DMSO) solution of test compound into a microtiter plate (96-well format), the nutrient broth containing the fungal spores was added. The test plates were incubated at 24° C. and the inhibition of growth was determined photometrically 4-5 days after application.

[5] = system: Mycosphaerella Graminicola (Septoria Tritici); experiment: Mycosphaerella graminicola (Septoria tritici) / liquid culture (Septoria blotch); assay type: cell-based; conditions: Zymoseptoria tritici, liquid culture (PDB), growth inhibition photometrically 4-5 days after application, read-out: disease control
Method: as §1, with “Graminicola (Septoria Tritici)/Liquid” for “Arachidis (Cercospora Arachidicola)/Liquid”, “(Septoria Blotch)” for “(Early Leaf Spot)”

[6] = system: Thanatephorus Cucumeris (Rhizoctonia Solani); experiment: Thanatephorus cucumeris (Rhizoctonia solani) / liquid culture (foot rot, damping-off); assay type: cell-based; conditions: liquid culture (PDB), growth inhibition photometrically 3-4 days after application, read-out: disease control
Method: Fungicidal Activity Against Thanatephorus Cucumeris (Rhizoctonia Solani)/Liquid Culture (Foot Rot, Damping-Off) Mycelia fragments of a newly grown liquid culture of the fungus were directly mixed into nutrient broth (PDB potato dextrose broth). After placing a (DMSO) solution of the test compounds into a microtiter plate (96-well format), the nutrient broth containing the fungal material was added. The test plates were incubated at 24° C. and the inhibition of growth was determined photometrically 3-4 days after application. Compounds (from table T1) 1, 2, 4, 7, 8, 10, 11, 13, 14 and 17 at 200 ppm give at least 80% disease control in this test when compared to untreated control leaf disks under the same conditions, which show extensive disease development.

OC(Cn1cncn1)(c1ccc(Cl)cc1)C1(c2ccccn2)CC1 (stereo not shown) [Compound 1, 1-(4-chlorophenyl)-1-[1-(2-pyridyl)cyclopropyl]-2-(1,2,4-triazol-1-yl)ethanol]
≥ 80%: pest or weed control at 200 ppm [1] | pest or weed control at 200 ppm [2] | pest or weed control at 200 ppm [3] | inhibition of growth at 200 ppm [4] | inhibition of growth at 200 ppm [5] | inhibition of growth at 200 ppm [6]

OC(Cn1cncn1)(c1ccc(F)cc1)C1(c2ncc(Br)cc2Cl)CC1 (stereo not shown) [Compound 2, 1-[1-(5-bromo-3-chloro-2-pyridyl)cyclopropyl]-1-(4-fluorophenyl)-2-(1,2,4-triazol-1-yl)ethanol]
≥ 80%: pest or weed control at 200 ppm [1] | pest or weed control at 200 ppm [2] | pest or weed control at 200 ppm [3] | inhibition of growth at 200 ppm [4] | inhibition of growth at 200 ppm [5] | inhibition of growth at 200 ppm [6]

OC(Cn1ccnc1)(c1ccc(F)cc1)C1(c2ccc(Br)cn2)CC1 (stereo not shown) [Compound 3, 1-[1-(5-bromo-2-pyridyl)cyclopropyl]-1-(4-fluorophenyl)-2-imidazol-1-yl-ethanol]
≥ 80%: pest or weed control at 200 ppm [1] | pest or weed control at 200 ppm [2] | pest or weed control at 200 ppm [3]

OC(Cn1cncn1)(c1ccc(F)cc1)C1(c2ccc(Br)cn2)CC1 (stereo not shown) [Compound 4, 1-[1-(5-bromo-2-pyridyl)cyclopropyl]-1-(4-fluorophenyl)-2-(1,2,4-triazol-1-yl)ethanol]
≥ 80%: pest or weed control at 200 ppm [1] | pest or weed control at 200 ppm [2] | pest or weed control at 200 ppm [3] | inhibition of growth at 200 ppm [4] | inhibition of growth at 200 ppm [6]

OC(Cn1ccnc1)(c1ccc(F)cc1)C1(c2ncc(Br)cc2Cl)CC1 (stereo not shown) [Compound 5, 1-[1-(5-bromo-3-chloro-2-pyridyl)cyclopropyl]-1-(4-fluorophenyl)-2-imidazol-1-yl-ethanol]
≥ 80%: pest or weed control at 200 ppm [1] | pest or weed control at 200 ppm [2] | pest or weed control at 200 ppm [3]

OC(Cn1cncn1)(c1ccc(F)cc1)C1(c2ccc(Br)c(-c3ccc(F)cc3)n2)CC1 (stereo not shown) [Compound 6, 1-[1-[5-bromo-6-(4-fluorophenyl)-2-pyridyl]cyclopropyl]-1-(4-fluorophenyl)-2-(1,2,4-triazol-1-yl)ethanol]
≥ 80%: pest or weed control at 200 ppm [1] | pest or weed control at 200 ppm [2] | pest or weed control at 200 ppm [3] | inhibition of growth at 200 ppm [4]

OC(Cn1cncn1)(c1ccc(F)cc1)C1(c2ccc(C3CC3)cn2)CC1 (stereo not shown) [Compound 7, 1-[1-(5-cyclopropyl-2-pyridyl)cyclopropyl]-1-(4-fluorophenyl)-2-(1,2,4-triazol-1-yl)ethanol]
≥ 80%: pest or weed control at 200 ppm [1] | pest or weed control at 200 ppm [2] | pest or weed control at 200 ppm [3] | inhibition of growth at 200 ppm [4] | inhibition of growth at 200 ppm [5] | inhibition of growth at 200 ppm [6]

N#Cc1ccc(-c2ccc(C3(C(O)(Cn4cncn4)c4ccc(F)cc4)CC3)nc2)cc1 (stereo not shown) [Compound 8, 4-[6-[1-[1-(4-fluorophenyl)-1-hydroxy-2-(1,2,4-triazol-1-yl)ethyl]cyclopropyl]-3-pyridyl]benzonitrile]
≥ 80%: pest or weed control at 200 ppm [1] | pest or weed control at 200 ppm [2] | pest or weed control at 200 ppm [3] | inhibition of growth at 200 ppm [4] | inhibition of growth at 200 ppm [5] | inhibition of growth at 200 ppm [6]

OC(Cn1cncn1)(c1ccc(F)cc1)C1(c2ccc(Cl)nc2)CC1 (stereo not shown) [Compound 9, 1-[1-(6-chloro-3-pyridyl)cyclopropyl]-1-(4-fluorophenyl)-2-(1,2,4-triazol-1-yl)ethanol]
≥ 80%: pest or weed control at 200 ppm [1] | pest or weed control at 200 ppm [2] | pest or weed control at 200 ppm [3] | inhibition of growth at 200 ppm [4] | inhibition of growth at 200 ppm [5]

OC(Cn1cncn1)(c1ccc(F)cc1)C1(c2ccccn2)CC1 (stereo not shown) [Compound 10, 1-(4-fluorophenyl)-1-[1-(2-pyridyl)cyclopropyl]-2-(1,2,4-triazol-1-yl)ethanol]
≥ 80%: pest or weed control at 200 ppm [1] | pest or weed control at 200 ppm [2] | pest or weed control at 200 ppm [3] | inhibition of growth at 200 ppm [4] | inhibition of growth at 200 ppm [5] | inhibition of growth at 200 ppm [6]

OC(Cn1cncn1)(c1ccc(Cl)cc1)C1(c2ccc(Cl)cn2)CC1 (stereo not shown) [Compound 11, 1-(4-chlorophenyl)-1-[1-(5-chloro-2-pyridyl)cyclopropyl]-2-(1,2,4-triazol-1-yl)ethanol]
≥ 80%: pest or weed control at 200 ppm [1] | pest or weed control at 200 ppm [2] | pest or weed control at 200 ppm [3] | inhibition of growth at 200 ppm [4] | inhibition of growth at 200 ppm [5] | inhibition of growth at 200 ppm [6]

N#Cc1ccc(C2(C(O)(Cn3cncn3)c3ccc(F)cc3)CC2)nc1 (stereo not shown) [Compound 12, 6-[1-[1-(4-fluorophenyl)-1-hydroxy-2-(1,2,4-triazol-1-yl)ethyl]cyclopropyl]pyridine-3-carbonitrile]
≥ 80%: pest or weed control at 200 ppm [1] | pest or weed control at 200 ppm [2] | pest or weed control at 200 ppm [3] | inhibition of growth at 200 ppm [5]

OC(Cn1cncn1)(c1ccc(F)cc1)C1(c2ccc(C(F)(F)F)cn2)CC1 (stereo not shown) [Compound 13, 1-(4-fluorophenyl)-2-(1,2,4-triazol-1-yl)-1-[1-[5-(trifluoromethyl)-2-pyridyl]cyclopropyl]ethanol]
≥ 80%: pest or weed control at 200 ppm [1] | pest or weed control at 200 ppm [2] | pest or weed control at 200 ppm [3] | inhibition of growth at 200 ppm [4] | inhibition of growth at 200 ppm [5] | inhibition of growth at 200 ppm [6]

OC(Cn1cncn1)(c1ccc(F)cc1)C1(c2ccc(Cl)cn2)CC1 (stereo not shown) [Compound 14, 1-[1-(5-chloro-2-pyridyl)cyclopropyl]-1-(4-fluorophenyl)-2-(1,2,4-triazol-1-yl)ethanol]
≥ 80%: pest or weed control at 200 ppm [1] | pest or weed control at 200 ppm [2] | pest or weed control at 200 ppm [3] | inhibition of growth at 200 ppm [4] | inhibition of growth at 200 ppm [5] | inhibition of growth at 200 ppm [6]

OC(Cn1cncn1)(c1ccc(Cl)cc1)C1(c2ccccn2)CCCC1 (stereo not shown) [Compound 15, 1-(4-chlorophenyl)-1-[1-(2-pyridyl)cyclopentyl]-2-(1,2,4-triazol-1-yl)ethanol]
≥ 80%: pest or weed control at 200 ppm [1] | pest or weed control at 200 ppm [2] | pest or weed control at 200 ppm [3] | inhibition of growth at 200 ppm [4] | inhibition of growth at 200 ppm [5]

OC(Cn1cncn1)(c1ccc(Cl)cc1)C1(c2ccc(Cl)cn2)CCC1 (stereo not shown) [Compound 16, 1-(4-chlorophenyl)-1-[1-(5-chloro-2-pyridyl)cyclobutyl]-2-(1,2,4-triazol-1-yl)ethanol]
≥ 80%: pest or weed control at 200 ppm [1] | pest or weed control at 200 ppm [2] | pest or weed control at 200 ppm [3] | inhibition of growth at 200 ppm [4] | inhibition of growth at 200 ppm [5]

OC(Cn1cncn1)(c1ccc(F)cc1)C1(c2ccc(-c3cccc(OC(F)(F)F)c3)cn2)CCC1 (stereo not shown) [Compound 18, 1-(4-fluorophenyl)-2-(1,2,4-triazol-1-yl)-1-[1-[5-[3-(trifluoromethoxy)phenyl]-2-pyridyl]cyclobutyl]ethanol]
≥ 80%: pest or weed control at 200 ppm [1] | inhibition of growth at 200 ppm [4] | inhibition of growth at 200 ppm [5]

OC(Cn1cncn1)(c1ccc(F)cc1)C1(c2ccc(-c3ccc(Cl)cc3F)cn2)CCC1 (stereo not shown) [Compound 19, 1-[1-[5-(4-chloro-2-fluoro-phenyl)-2-pyridyl]cyclobutyl]-1-(4-fluorophenyl)-2-(1,2,4-triazol-1-yl)ethanol]
≥ 80%: pest or weed control at 200 ppm [1] | inhibition of growth at 200 ppm [4] | inhibition of growth at 200 ppm [5]
